{"source": "paper PMC12749166", "about": "“Fragment-based drug design of a bacterial kinase inhibitor capable of increasing the antibiotic sensitivity of clinical isolates” (Communications Chemistry, 2025)", "key": {"P. aeruginosa C0307 [1]": {"tested_on": "P. aeruginosa C0307", "experiment": "Bacterial growth kinetics over 24 h", "format": "cell-based"}, "APH(3’)-IIb": {"biological_target": "T1, APH(3’)-IIb (Pseudomonas aeruginosa, UniProt Q9HWR2, M95L)", "T1 sequence (Q9HWR2 1-268 M95L)": "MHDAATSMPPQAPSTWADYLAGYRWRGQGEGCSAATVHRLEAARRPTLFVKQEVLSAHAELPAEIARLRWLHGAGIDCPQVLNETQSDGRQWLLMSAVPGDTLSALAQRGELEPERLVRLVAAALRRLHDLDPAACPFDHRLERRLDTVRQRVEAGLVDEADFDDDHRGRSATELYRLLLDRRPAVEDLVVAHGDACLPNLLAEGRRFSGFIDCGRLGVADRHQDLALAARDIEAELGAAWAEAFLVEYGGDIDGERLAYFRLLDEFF", "experiment": "biochemical", "quoted_text": "Plates were placed in a Clariostar plate reader. […] The initial rate constants (kss) were then measured using a linear regression of the absorbance as a function of time using GraFit software (v. 7.0.3, Erithacus software). Inhibition constants were determined by global fittings of the dependences of kss as a function of ATP and inhibitor concentrations, using a competitive inhibition equation and GraFit software. The standard error of the Ki value was determined in the GraFit software based on the global fitting of four experimental series."}, "APH(2”)-IVa": {"biological_target": "APH(2”)-IVa (Enterococcus casseliflavus, UniProt O68183)", "sequence (O68183 1-301)": "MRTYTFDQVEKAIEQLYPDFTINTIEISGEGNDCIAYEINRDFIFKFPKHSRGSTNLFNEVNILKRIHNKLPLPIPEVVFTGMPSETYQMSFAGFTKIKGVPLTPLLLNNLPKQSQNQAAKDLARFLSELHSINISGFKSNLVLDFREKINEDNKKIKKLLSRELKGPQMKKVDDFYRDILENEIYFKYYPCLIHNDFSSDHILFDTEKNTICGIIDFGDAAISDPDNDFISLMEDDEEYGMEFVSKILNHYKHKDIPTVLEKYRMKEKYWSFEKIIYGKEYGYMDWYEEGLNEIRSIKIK", "experiment": "biochemical", "format": "binding", "procedure": "ITC experiments were performed on three different machines: a MicroCal VP-ITC (GE Healthcare), a MicroCal PEAQ-ITC (Malvern), or a MicroCal iTC200 (Malvern). The architecture and principles are similar for the three different systems. The experiments were carried out in Buffer HEPES at 25 °C. Titrations consisted of twenty injections of 1.5 µL inhibitors, every 120 seconds, into the measuring cell using the injection syringe rotating at 750 rpm. The data were analyzed using the MicroCal PEAQ-ITC software (v. 1.52, Malvern) using the single-site binding model to fit the raw data. The standard error of the Kd value was determined from measurements made on distinct samples (n indicated in the text)."}, "P. aeruginosa C0307 [2]": {"tested_on": "P. aeruginosa C0307", "experiment": "Checkerboard assay of 83 with kanamycin A", "format": "cell-based", "conditions": "for MIC of kanamycin A: 18 h at 37 °C"}}}
{"smiles": "Clc1cnc2[nH]ccc2c1-c1ccn[nH]1", "note": "[Compound 83]", "values": [{"measurement": "Delay of the onset of growth", "setting": "P. aeruginosa C0307 [1]; 8 µg mL^−1 kanamycin A, 83 at 500 µM", "value": "around 6 h"}, {"measurement": "Extension of latency", "setting": "P. aeruginosa C0307 [1]; 16 µg mL^−1 kanamycin A, 500 µM 83", "value": 12, "unit": "h"}, {"measurement": "Growth", "setting": "P. aeruginosa C0307 [1]; 32 µg mL^−1 kanamycin A, 500 µM 83, 24 h of incubation", "value": "growth did not begin after 24 h of incubation"}, {"measurement": "Toxicity of 83 alone on bacteria", "setting": "P. aeruginosa C0307 [1]; up to 500 µM (109 µg mL^−1), no kanamycin A, 24 h", "value": "no toxicity"}, {"measurement": "inhibition at 100 µM", "setting": "APH(3’)-IIb", "value": 91, "unit": "%"}, {"measurement": "Kd", "setting": "APH(2”)-IVa", "value": "1060 ± 170", "unit": "nM"}, {"measurement": "ΔH", "setting": "APH(2”)-IVa; ITC", "value": -11.0, "unit": "kcal/mol"}, {"measurement": "MIC of kanamycin A", "setting": "P. aeruginosa C0307 [2]; 0 µg mL^−1 imipenem, [83] 2 µg mL^−1", "value": 64, "unit": "µg/mL"}, {"measurement": "MIC of kanamycin A", "setting": "P. aeruginosa C0307 [2]; 0 µg mL^−1 imipenem, [83] 4 µg mL^−1", "value": 64, "unit": "µg/mL"}, {"measurement": "MIC of kanamycin A", "setting": "P. aeruginosa C0307 [2]; 0 µg mL^−1 imipenem, [83] 8 µg mL^−1", "value": 64, "unit": "µg/mL"}, {"measurement": "MIC of kanamycin A", "setting": "P. aeruginosa C0307 [2]; 0 µg mL^−1 imipenem, [83] 16 µg mL^−1", "value": 64, "unit": "µg/mL"}, {"measurement": "MIC of kanamycin A", "setting": "P. aeruginosa C0307 [2]; 0 µg mL^−1 imipenem, [83] 32 µg mL^−1", "value": 64, "unit": "µg/mL"}, {"measurement": "MIC of kanamycin A", "setting": "P. aeruginosa C0307 [2]; 0 µg mL^−1 imipenem, [83] 64 µg mL^−1", "value": 64, "unit": "µg/mL"}, {"measurement": "MIC of kanamycin A", "setting": "P. aeruginosa C0307 [2]; 0 µg mL^−1 imipenem, [83] 128 µg mL^−1", "value": 32, "unit": "µg/mL"}, {"measurement": "MIC of kanamycin A", "setting": "P. aeruginosa C0307 [2]; 0.05 µg mL^−1 imipenem, [83] 2 µg mL^−1", "value": 64, "unit": "µg/mL"}, {"measurement": "MIC of kanamycin A", "setting": "P. aeruginosa C0307 [2]; 0.05 µg mL^−1 imipenem, [83] 4 µg mL^−1", "value": 64, "unit": "µg/mL"}, {"measurement": "MIC of kanamycin A", "setting": "P. aeruginosa C0307 [2]; 0.05 µg mL^−1 imipenem, [83] 8 µg mL^−1", "value": 64, "unit": "µg/mL"}, {"measurement": "MIC of kanamycin A", "setting": "P. aeruginosa C0307 [2]; 0.05 µg mL^−1 imipenem, [83] 16 µg mL^−1", "value": 64, "unit": "µg/mL"}, {"measurement": "MIC of kanamycin A", "setting": "P. aeruginosa C0307 [2]; 0.05 µg mL^−1 imipenem, [83] 32 µg mL^−1", "value": 64, "unit": "µg/mL"}, {"measurement": "MIC of kanamycin A", "setting": "P. aeruginosa C0307 [2]; 0.05 µg mL^−1 imipenem, [83] 64 µg mL^−1", "value": 64, "unit": "µg/mL"}, {"measurement": "MIC of kanamycin A", "setting": "P. aeruginosa C0307 [2]; 0.05 µg mL^−1 imipenem, [83] 128 µg mL^−1", "value": 32, "unit": "µg/mL"}, {"measurement": "checkerboard well reading (growth)", "setting": "P. aeruginosa C0307 [2]; Supp. Figure 3 A, 83 1 µg.mL-1, kanamycin A 0 µg.mL-1", "value": 1.117}, {"measurement": "checkerboard well reading (growth)", "setting": "P. aeruginosa C0307 [2]; Supp. Figure 3 A, 83 1 µg.mL-1, kanamycin A 2 µg.mL-1", "value": 1.340}, {"measurement": "checkerboard well reading (growth)", "setting": "P. aeruginosa C0307 [2]; Supp. Figure 3 A, 83 1 µg.mL-1, kanamycin A 4 µg.mL-1", "value": 1.454}, {"measurement": "checkerboard well reading (growth)", "setting": "P. aeruginosa C0307 [2]; Supp. Figure 3 A, 83 1 µg.mL-1, kanamycin A 8 µg.mL-1", "value": 1.268}, {"measurement": "checkerboard well reading (growth)", "setting": "P. aeruginosa C0307 [2]; Supp. Figure 3 A, 83 16 µg.mL-1, kanamycin A 0 µg.mL-1", "value": 1.272}, {"measurement": "checkerboard well reading (growth)", "setting": "P. aeruginosa C0307 [2]; Supp. Figure 3 A, 83 16 µg.mL-1, kanamycin A 2 µg.mL-1", "value": 1.771}, {"measurement": "checkerboard well reading (growth)", "setting": "P. aeruginosa C0307 [2]; Supp. Figure 3 A, 83 16 µg.mL-1, kanamycin A 4 µg.mL-1", "value": 1.508}, {"measurement": "checkerboard well reading (growth)", "setting": "P. aeruginosa C0307 [2]; Supp. Figure 3 A, 83 16 µg.mL-1, kanamycin A 8 µg.mL-1", "value": 1.668}, {"measurement": "checkerboard well reading (growth)", "setting": "P. aeruginosa C0307 [2]; Supp. Figure 3 A, 83 16 µg.mL-1, kanamycin A 16 µg.mL-1", "value": 1.123}, {"measurement": "checkerboard well reading (growth)", "setting": "P. aeruginosa C0307 [2]; Supp. Figure 3 A, 83 16 µg.mL-1, kanamycin A 32 µg.mL-1", "value": 1.123}, {"measurement": "checkerboard well reading (growth)", "setting": "P. aeruginosa C0307 [2]; Supp. Figure 3 A, 83 16 µg.mL-1, kanamycin A 64 µg.mL-1", "value": 0.184}, {"measurement": "checkerboard well reading (growth)", "setting": "P. aeruginosa C0307 [2]; Supp. Figure 3 A, 83 16 µg.mL-1, kanamycin A 128 µg.mL-1", "value": 0.041}, {"measurement": "checkerboard well reading (growth)", "setting": "P. aeruginosa C0307 [2]; Supp. Figure 3 A, 83 32 µg.mL-1, kanamycin A 0 µg.mL-1", "value": 1.376}, {"measurement": "checkerboard well reading (growth)", "setting": "P. aeruginosa C0307 [2]; Supp. Figure 3 A, 83 32 µg.mL-1, kanamycin A 2 µg.mL-1", "value": 1.667}, {"measurement": "checkerboard well reading (growth)", "setting": "P. aeruginosa C0307 [2]; Supp. Figure 3 A, 83 32 µg.mL-1, kanamycin A 4 µg.mL-1", "value": 1.435}, {"measurement": "checkerboard well reading (growth)", "setting": "P. aeruginosa C0307 [2]; Supp. Figure 3 A, 83 32 µg.mL-1, kanamycin A 8 µg.mL-1", "value": 1.524}, {"measurement": "checkerboard well reading (growth)", "setting": "P. aeruginosa C0307 [2]; Supp. Figure 3 A, 83 32 µg.mL-1, kanamycin A 16 µg.mL-1", "value": 1.359}, {"measurement": "checkerboard well reading (growth)", "setting": "P. aeruginosa C0307 [2]; Supp. Figure 3 A, 83 32 µg.mL-1, kanamycin A 32 µg.mL-1", "value": 1.130}, {"measurement": "checkerboard well reading (growth)", "setting": "P. aeruginosa C0307 [2]; Supp. Figure 3 A, 83 32 µg.mL-1, kanamycin A 64 µg.mL-1", "value": 0.118}, {"measurement": "checkerboard well reading (growth)", "setting": "P. aeruginosa C0307 [2]; Supp. Figure 3 A, 83 32 µg.mL-1, kanamycin A 128 µg.mL-1", "value": 0.042}, {"measurement": "checkerboard well reading (growth)", "setting": "P. aeruginosa C0307 [2]; Supp. Figure 3 A, 83 64 µg.mL-1, kanamycin A 0 µg.mL-1", "value": 1.213}, {"measurement": "checkerboard well reading (growth)", "setting": "P. aeruginosa C0307 [2]; Supp. Figure 3 A, 83 64 µg.mL-1, kanamycin A 2 µg.mL-1", "value": 1.320}, {"measurement": "checkerboard well reading (growth)", "setting": "P. aeruginosa C0307 [2]; Supp. Figure 3 A, 83 64 µg.mL-1, kanamycin A 4 µg.mL-1", "value": 1.451}, {"measurement": "checkerboard well reading (growth)", "setting": "P. aeruginosa C0307 [2]; Supp. Figure 3 A, 83 64 µg.mL-1, kanamycin A 8 µg.mL-1", "value": 1.433}, {"measurement": "checkerboard well reading (growth)", "setting": "P. aeruginosa C0307 [2]; Supp. Figure 3 A, 83 64 µg.mL-1, kanamycin A 16 µg.mL-1", "value": 1.312}, {"measurement": "checkerboard well reading (growth)", "setting": "P. aeruginosa C0307 [2]; Supp. Figure 3 A, 83 64 µg.mL-1, kanamycin A 32 µg.mL-1", "value": 1.055}, {"measurement": "checkerboard well reading (growth)", "setting": "P. aeruginosa C0307 [2]; Supp. Figure 3 A, 83 64 µg.mL-1, kanamycin A 64 µg.mL-1", "value": 0.042}, {"measurement": "checkerboard well reading (growth)", "setting": "P. aeruginosa C0307 [2]; Supp. Figure 3 A, 83 64 µg.mL-1, kanamycin A 128 µg.mL-1", "value": 0.044}, {"measurement": "checkerboard well reading (growth)", "setting": "P. aeruginosa C0307 [2]; Supp. Figure 3 A, 83 128 µg.mL-1, kanamycin A 0 µg.mL-1", "value": 1.324}, {"measurement": "checkerboard well reading (growth)", "setting": "P. aeruginosa C0307 [2]; Supp. Figure 3 A, 83 128 µg.mL-1, kanamycin A 2 µg.mL-1", "value": 1.439}, {"measurement": "checkerboard well reading (growth)", "setting": "P. aeruginosa C0307 [2]; Supp. Figure 3 A, 83 128 µg.mL-1, kanamycin A 4 µg.mL-1", "value": 1.308}, {"measurement": "checkerboard well reading (growth)", "setting": "P. aeruginosa C0307 [2]; Supp. Figure 3 A, 83 128 µg.mL-1, kanamycin A 8 µg.mL-1", "value": 1.307}, {"measurement": "checkerboard well reading (growth)", "setting": "P. aeruginosa C0307 [2]; Supp. Figure 3 A, 83 128 µg.mL-1, kanamycin A 16 µg.mL-1", "value": 1.218}, {"measurement": "checkerboard well reading (growth)", "setting": "P. aeruginosa C0307 [2]; Supp. Figure 3 A, 83 128 µg.mL-1, kanamycin A 32 µg.mL-1", "value": 0.227}, {"measurement": "checkerboard well reading (growth)", "setting": "P. aeruginosa C0307 [2]; Supp. Figure 3 A, 83 128 µg.mL-1, kanamycin A 64 µg.mL-1", "value": 0.039}, {"measurement": "checkerboard well reading (growth)", "setting": "P. aeruginosa C0307 [2]; Supp. Figure 3 A, 83 128 µg.mL-1, kanamycin A 128 µg.mL-1", "value": 0.039}, {"measurement": "checkerboard well reading (growth)", "setting": "P. aeruginosa C0307 [2]; Supp. Figure 3 B, 83 1 µg.mL-1, kanamycin A 0 µg.mL-1", "value": 1.239}, {"measurement": "checkerboard well reading (growth)", "setting": "P. aeruginosa C0307 [2]; Supp. Figure 3 B, 83 1 µg.mL-1, kanamycin A 2 µg.mL-1", "value": 1.239}, {"measurement": "checkerboard well reading (growth)", "setting": "P. aeruginosa C0307 [2]; Supp. Figure 3 B, 83 1 µg.mL-1, kanamycin A 4 µg.mL-1", "value": 1.159}, {"measurement": "checkerboard well reading (growth)", "setting": "P. aeruginosa C0307 [2]; Supp. Figure 3 B, 83 1 µg.mL-1, kanamycin A 8 µg.mL-1", "value": 1.192}, {"measurement": "checkerboard well reading (growth)", "setting": "P. aeruginosa C0307 [2]; Supp. Figure 3 B, 83 1 µg.mL-1, kanamycin A 16 µg.mL-1", "value": 1.219}]}
